Laboratory results published in PubChem BioAssay (NCI).
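Protocol summary: plate cells (96-well), add compound at 5 concentrations, incubate 48 h, interpolate endpoints linearly. The concentration for 50% growth inhibition is given as GI50. TGI: concentration producing complete growth inhibition.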

What was measured:
Assay in all cases: DTP human tumour cell line panel, 48 h
UO-31 renal = system: UO-31 renal
IGROV1 ovarian = system: IGROV1 ovarian
SW-620 colon = system: SW-620 colon
SNB-19 CNS = system: SNB-19 CNS
MDA-MB-231 breast = system: MDA-MB-231 breast
TK-10 renal = system: TK-10 renal
MOLT-4 leukemia = system: MOLT-4 leukemia
BT-549 breast = system: BT-549 breast
SF-539 CNS = system: SF-539 CNS
HL-60(TB) leukemia = system: HL-60(TB) leukemia
T-47D breast = system: T-47D breast
M14 melanoma = system: M14 melanoma
SF-268 CNS = system: SF-268 CNS
SK-MEL-2 melanoma = system: SK-MEL-2 melanoma
MCF7 breast = system: MCF7 breast
SF-295 CNS = system: SF-295 CNS
EKVX NSCLC = system: EKVX NSCLC
HOP-62 NSCLC = system: HOP-62 NSCLC
HT29 colon = system: HT29 colon
OVCAR-3 ovarian = system: OVCAR-3 ovarian
RXF 393 renal = system: RXF 393 renal
COLO 205 colon = system: COLO 205 colon
ACHN renal = system: ACHN renal
OVCAR-8 ovarian = system: OVCAR-8 ovarian
CCRF-CEM leukemia = system: CCRF-CEM leukemia
DU-145 prostate = system: DU-145 prostate
UACC-62 melanoma = system: UACC-62 melanoma
MALME-3M melanoma = system: MALME-3M melanoma
RPMI-8226 leukemia = system: RPMI-8226 leukemia
NCI/ADR-RES ovarian = system: NCI/ADR-RES ovarian
NCI-H23 lung = system: NCI-H23 lung
HS 578T breast = system: HS 578T breast
NCI-H460 lung = system: NCI-H460 lung
KM12 colon = system: KM12 colon
CAKI-1 renal = system: CAKI-1 renal
SK-MEL-28 melanoma = system: SK-MEL-28 melanoma
786-0 renal = system: 786-0 renal
NCI-H226 lung = system: NCI-H226 lung
UACC-257 melanoma = system: UACC-257 melanoma
OVCAR-4 ovarian = system: OVCAR-4 ovarian
HCC-2998 colon = system: HCC-2998 colon
SNB-75 CNS = system: SNB-75 CNS
SN12C renal = system: SN12C renal
PC-3 prostate = system: PC-3 prostate
A498 renal = system: A498 renal
A549 NSCLC = system: A549 NSCLC
LOX IMVI melanoma = system: LOX IMVI melanoma
OVCAR-5 ovarian = system: OVCAR-5 ovarian
HOP-92 NSCLC = system: HOP-92 NSCLC
HCT-15 colon = system: HCT-15 colon

## COc1ccc2c(c1)oc1c(C)c3c(c(C)c12)C(=O)N(N)C3=O
UO-31 renal
  GI50: > 100 µM
  TGI: > 100 µM
IGROV1 ovarian
  GI50: > 100 µM
  TGI: > 100 µM
SW-620 colon
  GI50: > 100 µM
  TGI: > 100 µM
SNB-19 CNS
  GI50: > 100 µM
  TGI: > 100 µM
MDA-MB-231 breast
  GI50: 61.9 µM
  TGI: > 100 µM
TK-10 renal
  GI50: > 100 µM
  TGI: > 100 µM
MOLT-4 leukemia
  GI50: 23.4 µM
  TGI: > 100 µM
BT-549 breast
  GI50: 5.2 µM
  TGI: > 100 µM
SF-539 CNS
  GI50: 78.8 µM
  TGI: > 100 µM
HL-60(TB) leukemia
  GI50: > 100 µM
  TGI: > 100 µM
T-47D breast
  GI50: > 100 µM
  TGI: > 100 µM
M14 melanoma
  GI50: > 100 µM
  TGI: > 100 µM
SF-268 CNS
  GI50: 21.9 µM
  TGI: > 100 µM
SK-MEL-2 melanoma
  GI50: > 100 µM
  TGI: > 100 µM
MCF7 breast
  GI50: 50.7 µM
  TGI: > 100 µM
SF-295 CNS
  GI50: > 100 µM
  TGI: > 100 µM
EKVX NSCLC
  GI50: > 100 µM
  TGI: > 100 µM
HOP-62 NSCLC
  GI50: 25 µM
  TGI: > 100 µM
HT29 colon
  GI50: > 100 µM
  TGI: > 100 µM
OVCAR-3 ovarian
  GI50: > 100 µM
  TGI: > 100 µM
RXF 393 renal
  GI50: 8.21 µM
  TGI: > 100 µM
COLO 205 colon
  GI50: > 100 µM
  TGI: > 100 µM
ACHN renal
  GI50: 7.53 µM
  TGI: > 100 µM
OVCAR-8 ovarian
  GI50: 7.89 µM
  TGI: > 100 µM
CCRF-CEM leukemia
  GI50: > 100 µM
  TGI: > 100 µM
DU-145 prostate
  GI50: > 100 µM
  TGI: > 100 µM
UACC-62 melanoma
  GI50: > 100 µM
  TGI: > 100 µM
MALME-3M melanoma
  GI50: > 100 µM
  TGI: > 100 µM
RPMI-8226 leukemia
  GI50: > 100 µM
  TGI: > 100 µM
NCI/ADR-RES ovarian
  GI50: > 100 µM
  TGI: > 100 µM
NCI-H23 lung
  GI50: > 100 µM
  TGI: > 100 µM
HS 578T breast
  GI50: 32.6 µM
  TGI: > 100 µM
NCI-H460 lung
  GI50: 3.49 µM
  TGI: > 100 µM
KM12 colon
  GI50: > 100 µM
  TGI: > 100 µM
CAKI-1 renal
  GI50: > 100 µM
  TGI: > 100 µM
SK-MEL-28 melanoma
  GI50: > 100 µM
  TGI: > 100 µM
786-0 renal
  GI50: 22.7 µM
  TGI: > 100 µM
NCI-H226 lung
  GI50: 40.4 µM
  TGI: > 100 µM
UACC-257 melanoma
  GI50: > 100 µM
  TGI: > 100 µM
OVCAR-4 ovarian
  GI50: > 100 µM
  TGI: > 100 µM
HCC-2998 colon
  GI50: > 100 µM
  TGI: > 100 µM
SNB-75 CNS
  GI50: 4.37 µM
  TGI: > 100 µM
SN12C renal
  GI50: > 100 µM
  TGI: > 100 µM
PC-3 prostate
  GI50: > 100 µM
  TGI: > 100 µM
A498 renal
  GI50: 4.25 µM
  TGI: > 100 µM
A549 NSCLC
  GI50: > 100 µM
  TGI: > 100 µM
LOX IMVI melanoma
  GI50: > 100 µM
  TGI: > 100 µM
OVCAR-5 ovarian
  GI50: > 100 µM
  TGI: > 100 µM
HOP-92 NSCLC
  GI50: > 100 µM
  TGI: > 100 µM
HCT-15 colon
  GI50: > 100 µM
  TGI: > 100 µM
